From US20110218188A1, “SUBSTITUTED (PYRIDYL)-AZINYLAMINE DERIVATIVES AS FUNGICIDES” (priority 2008, published 2011) come the findings set out here.

Marks after values point to notes of the source that are not given here.

The nature of the first data set: Measurement of logP values by HPLC on reversed phase columns (EEC directive 79/831 Annex V.A8). It is filed as physicochemical. The note with it: pH 2.7.
As for `CCOC(=O)c1cc(-c2ccnc(Nc3ccc(OC)nc3)n2)ccn1` [Example A1, ethyl 4-{2-[(6-methoxypyridin-3-yl)amino]-pyrimidin-4-yl}pyridine-2-carboxylate], the chromatographic logP was found to be 1.1.

As for `NC(=O)c1cc(-c2ncnc(Nc3cccc(F)c3)n2)ccn1` [B324], the logP came out at 2.09.

`O=C(c1cc(-c2ncnc(Nc3cccc(Cl)c3)n2)ccn1)N1CCC(C(F)(F)F)CC1` [B120] returned a lipophilicity (logP) of 3.55.

With `CC1(C)CCCN(C(=O)c2cc(-c3ncnc(Nc4cccc(Cl)c4)n3)ccn2)C1` [Example B147], the logP is listed as 3.83.

With `CN(CCC#N)C(=S)c1cc(-c2ncnc(Nc3cccc(Cl)c3)n2)ccn1` [Example B343], the logP is 3.02.

`COCc1cccc(Nc2ncnc(-c3ccnc(C(=O)N(C)C(COC)C4CC4)c3)n2)c1` (stereo not shown) [B251] displayed a logP of 2.69.

Compound `CC(C)N(C)C(=S)c1cc(-c2ncnc(Nc3ccc(F)c(C(F)F)c3)n2)ccn1` [Example B329] returned a logP of 3.29.

`CN(CC1CC1)C(=O)c1cc(-c2ncnc(Nc3cccc(C(F)(F)F)c3)n2)ccn1` [Example B357] had a logP of 3.33.

The compound `CCN(C)C(=O)c1cc(-c2ncnc(Nc3cccc(OC(F)(F)F)c3)n2)ccn1` [Example B268] registered a logP of 3.

Compound `Cc1ccc(Nc2ncnc(-c3ccnc(C(=O)NCC4CC4)c3)n2)cc1Cl` [B233] displayed a logP of 4.16.

In the case of `O=C(c1cc(-c2ccnc(Nc3ccnc(Cl)c3)n2)ccn1)N1CCCCC1` [Example A5], the log partition coefficient (logP) turned out to be 2.23.

`CC(C)N(C)C(=O)c1cc(-c2ccnc(Nc3ccnc(Cl)c3)n2)ccn1` [Example A28] gave a log partition coefficient (logP) of 2.13.

Compound `O=C(c1cc(-c2ncnc(Nc3cccc(Cl)c3)n2)ccn1)N1CCCCCC1` [Example B138] returned a logP of 3.46.

The compound `CC1CCCN(C(=O)c2cc(-c3ncnc(Nc4cccc(Cl)c4)n3)ccn2)C1C` (stereo not shown) [Example B137] showed a logP of 3.78.

In turn, `CCN(C)C(=O)c1cc(-c2ncnc(Nc3cc(F)ccc3F)n2)ccn1` [Example B358] came in with a lipophilicity (logP) of 2.39.

`NC(=S)c1cc(-c2ncnc(Nc3cccc(C(F)F)c3)n2)ccn1` [B320] yielded a logP of 3.05.

`C#CCN(c1cccc(Cl)c1)c1ncnc(-c2ccnc(C(=O)N(C)CCC#N)c2)n1` [B403] came in with a lipophilicity (logP) of 2.77.

As to `CCN(CC)C(=O)c1cc(-c2ncnc(Nc3ccc(Cl)c(C(F)F)c3)n2)ccn1` [Example B352], the log partition coefficient (logP) is 3.23.

`CCCN(C)C(=O)c1cc(-c2ncnc(Nc3cccc(OC(F)(F)F)c3)n2)ccn1` [Example B264] had a logP of 3.37.

`CC(C)N(C)C(=O)c1cc(-c2ncnc(Nc3cccc(OC(F)F)c3)n2)ccn1` [Example B302]: the logP was 2.78.

The compound `CC(C)N(C)C(=O)c1cc(-c2ncnc(Nc3ccccc3)n2)ccn1` [Example B317] displayed a lipophilicity (logP) of 2.45.

For the compound `CN(CC1CC1)C(=O)c1cc(-c2ncnc(Nc3cccc(Cl)c3)n2)ccn1` [Example B133], the lipophilicity (logP) is recorded as 3.15.

In turn, `Cc1ccc(Nc2ncnc(-c3ccnc(C(=O)NC(C)C)c3)n2)cc1Cl` [B230] registered a log partition coefficient (logP) of 4.04.

For the compound `CCN(C)C(=S)c1cc(-c2ncnc(Nc3cccc(F)c3)n2)ccn1` [Example B10], the logP amounted to 2.94.

In the case of `CCC(=O)O/N=C(/N)c1cc(-c2ncnc(Nc3cccc(Cl)c3)n2)ccn1` [B108], the logP turned out to be 3.33.

In the case of `COCc1cccc(Nc2ncnc(-c3ccnc(C(=O)N(C)C)c3)n2)c1` [Example B243], the logP came to 1.91.

`CCN(C)C(=O)c1cc(-c2ncnc(Nc3cccc(C(C)C)c3)n2)ccn1` [Example B258] gave a logP of 3.11.

The compound `CCCC(=O)O/N=C(/N)c1cc(-c2ncnc(Nc3cccc(Cl)c3)n2)ccn1` [B106] showed a logP of 3.8.

`CC(C)CN(C)C(=O)c1cc(-c2ncnc(Nc3ccc(F)c(Cl)c3)n2)ccn1` [Example B206]: the logP is 3.46.

As for `COCCN(C)C(=O)c1cc(Nc2nccc(-c3ccnc(C(=O)N(C)CCOC)c3)n2)ccn1` [Example A4], the logP was 1.1.

With `CCON=C(CC)c1cc(-c2ncnc(Nc3cccc(Cl)c3)n2)ccn1` (mixture of isomers) [Example B40], the logP stood at 5.1.

As for `NC(=S)c1cc(-c2ncnc(Nc3cccc(F)c3)n2)ccn1` [B321], the lipophilicity (logP) came out at 2.57.

`CCC(=NOC)c1cc(-c2ncnc(Nc3cccc(Cl)c3)n2)ccn1` (mixture of isomers) [Example B85] returned a logP of 4.81.

On to `COCC(C1CC1)N(C)C(=O)c1cc(-c2ncnc(Nc3cccc(OC(F)F)c3)n2)ccn1` (stereo not shown) [Example B303], for which the logP came out at 2.94.

`CC(C)CN(C)C(=S)c1cc(-c2ncnc(Nc3ccc(F)c(C(F)F)c3)n2)ccn1` [Example B335] displayed a lipophilicity (logP) of 3.71.

In turn, `COc1cccc(Nc2ncnc(-c3ccnc(C(=O)N(C)CC(C)C)c3)n2)c1` [Example B277] displayed a lipophilicity (logP) of 2.90.

Compound `CC(C)CN(C)C(=O)c1cc(-c2ncnc(Nc3cccc(Cl)c3)n2)ccn1` [Example B151] returned a lipophilicity (logP) of 3.42.

Consider `O=C(NC1CCC1)c1cc(-c2ncnc(Nc3ccc(F)c(Cl)c3)n2)ccn1` [B199], for which the log partition coefficient (logP) was determined as 3.94.

Compound `CCN(C)C(=S)c1cc(-c2ncnc(Nc3cccc(OC(F)(F)C(F)F)c3)n2)ccn1` [Example B261] yielded a logP of 3.41.

On to `C#CC(C)ON=C(C)c1cc(-c2ncnc(Nc3cccc(Cl)c3)n2)ccn1` (mixture of isomers) [B30], for which the log partition coefficient (logP) is 4.47.

`COCc1cccc(Nc2ncnc(-c3ccnc(C(=S)N(C)CC4CC4)c3)n2)c1` [Example B249] showed a log partition coefficient (logP) of 3.12.

For `COCC(C)NC(=O)c1cc(-c2ncnc(Nc3cccc(SC)c3)n2)ccn1` (stereo not shown) [B212], the logP is recorded as 3.31.

Regarding `C=CCN(C)C(=O)c1cc(-c2ccnc(Nc3ccnc(Cl)c3)n2)ccn1` [Example A25], the logP is listed as 2.13.

As for `O=C(c1cc(Nc2nccc(-c3ccnc(C(=O)N4CCCCC4)c3)n2)ccn1)N1CCCCC1` [Example A6], the logP is on record as 1.63.

`CCNC(=O)c1cc(-c2ncnc(Nc3cccc(Cl)c3)n2)ccn1` [B92] showed a logP of 3.17.

As to `CC(C)=CCN(C)C(=O)c1cc(-c2ncnc(Nc3cccc(Cl)c3)n2)ccn1` [Example B148], the log partition coefficient (logP) came to 3.67.

The compound `CC(C)CN(C)C(=O)c1cc(-c2ncnc(Nc3ccc(F)c(C(F)F)c3)n2)ccn1` [Example B395] returned a logP of 3.15.

On to `Cc1ccc(Nc2ncnc(-c3ccnc(C(=O)N(C)C(C)C)c3)n2)cc1Cl` [Example B365], for which the logP came out at 3.33.

`CCCN(C)C(=O)c1cc(-c2ncnc(Nc3cccc(OC(F)F)c3)n2)ccn1` [Example B299] had a logP of 2.86.

`CCOc1cccc(Nc2ncnc(-c3ccnc(C(=O)N(C)CC)c3)n2)c1` [Example B254] came in with a log partition coefficient (logP) of 2.6.

Consider `CCN(C)C(=O)c1cc(Nc2nccc(-c3ccnc(C(=O)N(C)CC)c3)n2)ccn1` [Example A19, N-ethyl-4-[2-({2-[ethyl(methyl)carbamoyl]pyridin-4-yl}amino)pyrimidin-4-yl]-N-methylpyridine-2-carboxamide], for which the chromatographic logP was 1.19.

`CC(=NOCc1c(Cl)cccc1Cl)c1cc(-c2ncnc(Nc3cccc(Cl)c3)n2)ccn1` (mixture of isomers) [B39] gave a log partition coefficient (logP) of 6.02.

Regarding `CCCN(C)C(=O)c1cc(-c2ncnc(Nc3cccc(OC)c3)n2)ccn1` [Example B274], the logP is on record as 2.61.

In the case of `CCN(C)C(=O)c1cc(-c2ncnc(Nc3ccccc3)n2)ccn1` [Example B316], the logP came to 2.2.

With `CCN(C)C(=S)c1cc(-c2ncnc(Nc3ccc(F)cc3)n2)ccn1` [Example B23], the logP is reported as 2.8.

With `COc1cccc(Nc2ncnc(-c3ccnc(C(=O)N(C)C)c3)n2)c1` [Example B276], the log partition coefficient (logP) amounted to 2.01.

The compound `CSc1cccc(Nc2ncnc(-c3ccnc(C(=O)N(C)CC(F)F)c3)n2)c1` [Example B372] displayed a logP of 2.96.

`CCCN(C)C(=O)c1cc(-c2ncnc(Nc3ccc(F)c(Cl)c3)n2)ccn1` [Example B203] had a lipophilicity (logP) of 3.13.

On to `CCC1CCCCN1C(=O)c1cc(-c2ncnc(Nc3cccc(Cl)c3)n2)ccn1` (stereo not shown) [Example B139], for which the log partition coefficient (logP) came out at 3.8.

Turning to `CCCCNC(=O)c1cc(-c2ncnc(Nc3cccc(Cl)c3)n2)ccn1` [Example B93], the logP stood at 4.11.

Take `CCCCCCN(C)C(=O)c1cc(-c2ncnc(Nc3cccc(Cl)c3)n2)ccn1` [Example B128]: the lipophilicity (logP) came out at 4.34.

The compound `CCC(=NOCc1ccc(Cl)cc1)c1cc(-c2ncnc(Nc3cccc(Cl)c3)n2)ccn1` (mixture of isomers) [B70] gave a logP of 6.22.

Compound `O=C(NCC1CCCO1)c1cc(-c2ncnc(Nc3cccc(Cl)c3)n2)ccn1` (stereo not shown) [Example B33] showed a lipophilicity (logP) of 3.09.

Compound `CC(C)CN(C)C(=O)c1cc(-c2ncnc(Nc3ccc(F)c(F)c3)n2)ccn1` [Example B380] returned a logP of 3.19.

`CC#CCON=C(CC)c1cc(-c2ncnc(Nc3cccc(Cl)c3)n2)ccn1` (mixture of isomers) [B53]: the lipophilicity (logP) worked out at 4.91.

`O=C(NC1CCS(=O)(=O)C1)c1cc(-c2ncnc(Nc3cccc(Cl)c3)n2)ccn1` (stereo not shown) [B101] had a logP of 2.66.

As to `CN(C)C(=S)c1cc(-c2ncnc(Nc3ccc(F)c(C(F)F)c3)n2)ccn1` [Example B332], the log partition coefficient (logP) stood at 2.73.

In turn, `COc1ccc(Nc2ncnc(-c3ccnc(C(=O)N(C)CC4CC4)c3)n2)cn1` [Example C6] had a log partition coefficient (logP) of 2.2.

`CN(CC1CCCO1)C(=O)c1cc(-c2ncnc(Nc3cccc(Cl)c3)n2)ccn1` (stereo not shown) [Example B160] displayed a log partition coefficient (logP) of 2.76.

`O=C(NC1CC1)c1cc(-c2ncnc(Nc3cccc(Cl)c3)n2)ccn1` [Example B57]: the log partition coefficient (logP) came out at 3.05.

`Cc1ccc(Nc2ncnc(-c3ccnc(C(=O)N(C)C)c3)n2)cc1Cl` [Example B359] gave a logP of 2.71.

Turning to `O=C(NCCCN1CCCC1=O)c1cc(-c2ncnc(Nc3cccc(Cl)c3)n2)ccn1` [B100], the lipophilicity (logP) came to 2.63.

Staying with this data set, now noted: pH 7.8.
Take `CCN(OC)C(=O)c1cc(-c2ncnc(Nc3ccsc3)n2)ccn1` [Example C32]: the log partition coefficient (logP) is 2.33^[c].
